Measured values from patent US10870627B2, “Salt of quinazoline derivative, preparation method therefor and application thereof” (SHANGHAI PHARMACEUTICALS HOLDING CO., LTD., priority 2016, dated 2020).

Experiments:
[1] = Solid-state stability test; assay type: physicochemical
Protocol: An appropriate amount of the drugs were placed in the surface dish, spread to a thickness of 3-5 mm, and exposed in high temperature, high temperature and high humidity, illumination and oxidation conditions for 10 days respectively, and the solid-state characterization was performed. The purity and the number of impurities 0.05%) of the samples for testing were determined by HPLC, and compared with the samples on day 0. The exposure conditions are:
High temperature (an oven with T=60° C.);
Illumination (25° C., a 4500±500 lx light incubator);
Oxidation (25° C., a closed container containing urea hydrogen peroxide).

Solution stability test = assay type: physicochemical
Protocol: About 15 mg of the sample was weighed accurately, dissolved with 25 mL of the test solvent (10% aqueous acetone solution, pH=4.0 B-R buffer solution, SGF, SIF) via ultrasound for 20 minutes. The solution was divided into four portions and placed in the clear glass vials, followed by sealing. The samples were exposed in different environments and sampled on day 0 and day 5. The purity of each sample was determined by HPLC, and the number of impurities greater than 0.05% was calculated and compared with the samples on day 0. The exposure environments are:
Room temperature and light-proof test, 25° C.; […]
Illumination experiment (4500±500 lx), 25° C.;
Oxidation experiment (3% v/v hydrogen peroxide), 25° C.

[2] = Solubility determined by visual inspection; assay type: physicochemical; settings: room temperature
Protocol: The solubility was determined as follows: a certain amount of the sample was weighed and the solvent was added thereto in portions with stirring or ultrasonication to accelerate dissolution; the amount of the consumed solvent was recorded once the sample was dissolved. […] A certain volume of the solution was taken, followed by filtration, concentration, dissolved with a certain volume of other suitable solvents and subjected to HPLC measurement to obtain accurate data of the solubility.

[3] = Comparison of absorption in rats after intragastric administration of free base and salt (plasma pharmacokinetics); assay type: in vivo, SD rats
Protocol: The blood sample was centrifuged at 8000 RPM for 5 minutes, followed by the isolation of the upper plasma. […] 200 μL of the supernatant was taken and centrifuged again for 10 minutes. 50 μL of the supernatant was injected in a 96-well plate. The plasma drug concentration was determined by LC/MS/MS, and the corresponding pharmacokinetic parameters were calculated.

[4] = Dynamic vapor sorption (DVS), isothermal absorption analysis; assay type: physicochemical
Protocol: In the present invention, according to the common knowledge in the art, the amount of water absorption obtained from the dynamic vapor sorption (DVS) pattern is expressed in percentage by weight.
The isothermal absorption analysis (DVS) data was collected from TA Instruments Q5000 TGA. The software for instrument control was Thermal Advantage and software for analysis was Universal Analysis. 1-10 mg of the sample was generally placed in a platinum crucible, and the weight change of the sample during the relative humidity changing from 20% to 80% was recorded by the TA software. Depending on the specifics of the sample, different steps of sample adsorption and desorption were also involved.

[5] = 10 d, High temperature (oven, T=60° C.)
[6] = 10 d, High temperature and high humidity (40° C., 75% relative humidity)
[7] = 10 d, Illumination (25° C., 4500±500 lx)
[8] = 10 d, Oxidation (25° C., closed container with urea hydrogen peroxide)
[9] = 10% aqueous acetone solution, 5 d, High temperature
[10] = 10% aqueous acetone solution, 5 d, High temperature and high humidity
[11] = 10% aqueous acetone solution, 5 d, Oxidation (3% v/v hydrogen peroxide, 25° C.)
[12] = B-R Buffer solution (pH=4.0), 5 d, High temperature
[13] = B-R Buffer solution (pH=4.0), 5 d, High temperature and high humidity
[14] = B-R Buffer solution (pH=4.0), 5 d, Illumination (4500±500 lx, 25° C.)
[15] = B-R Buffer solution (pH=4.0), 5 d, Oxidation (3% v/v hydrogen peroxide, 25° C.)
[16] = SGF, 5 d, High temperature and high humidity
[17] = SIF, 5 d, High temperature and high humidity
[18] = SIF, 5 d, Illumination (4500±500 lx, 25° C.)
[19] = SIF, 5 d, Oxidation (3% v/v hydrogen peroxide, 25° C.)
[20] = SD rats, 20 μmol/kg, intragastric administration, plasma

C=C(F)C(=O)Nc1cc2c(Nc3ccc(F)c(Cl)c3)ncnc2cc1OCCCN1CCOCC1.O=S(=O)(O)CCS(=O)(=O)O
Number of impurities ([1]; 0 d): 2
Purity ([1]; 0 d): 99.0%
Number of impurities [1, 5]: 2
Purity [1, 5]: 99.0%
Number of impurities [1, 6]: 2
Purity [1, 6]: 99.0%
Number of impurities [1, 7]: 2
Purity [1, 7]: 99.0%
Number of impurities [1, 8]: 2
Purity [1, 8]: 99.0%
Number of impurities (Solution stability test; 10% aqueous acetone solution, 0 d, impurities greater than 0.05%): 1
Number of impurities (Solution stability test; [9]): 1
Purity (Solution stability test; [9]): 99.0%
Number of impurities (Solution stability test; [10]): 3
Purity (Solution stability test; [10]): 98.1%
Number of impurities (Solution stability test; 10% aqueous acetone solution, 5 d, Illumination (4500±500 lx, 25° C.)): 1
Number of impurities (Solution stability test; [11]): 7
Purity (Solution stability test; [11]): 70.8%
Purity (Solution stability test; B-R Buffer solution (pH=4.0), 0 d): 99.0%
Number of impurities (Solution stability test; B-R Buffer solution (pH=4.0), 0 d, impurities greater than 0.05%): 1
Number of impurities (Solution stability test; [12]): 1
Purity (Solution stability test; [12]): 99.0%
Number of impurities (Solution stability test; [13]): 3
Purity (Solution stability test; [13]): 97.7%
Number of impurities (Solution stability test; [14]): 1
Purity (Solution stability test; [14]): 99.0%
Number of impurities (Solution stability test; [15]): 15
Purity (Solution stability test; [15]): 44.0%
Purity (Solution stability test; SGF, 0 d): 99.0%
Number of impurities (Solution stability test; SGF, 0 d, impurities greater than 0.05%): 1
Number of impurities (Solution stability test; SGF, 5 d, High temperature): 2
Number of impurities (Solution stability test; [16]): 2
Purity (Solution stability test; [16]): 94.5%
Number of impurities (Solution stability test; SGF, 5 d, Illumination (4500±500 lx, 25° C.)): 2
Number of impurities (Solution stability test; SGF, 5 d, Oxidation (3% v/v hydrogen peroxide, 25° C.)): 3
Purity (Solution stability test; SIF, 0 d): 74.8%
Number of impurities (Solution stability test; SIF, 0 d, impurities greater than 0.05%): 2
Number of impurities (Solution stability test; SIF, 5 d, High temperature): 1
Purity (Solution stability test; SIF, 5 d, High temperature): 50.0%
Number of impurities (Solution stability test; [17]): 6
Purity (Solution stability test; [17]): 36.5%
Number of impurities (Solution stability test; [18]): 13
Purity (Solution stability test; [18]): 25.2%
Number of impurities (Solution stability test; [19]): 7
Purity (Solution stability test; [19]): 30.8%
visual solubility in water [2]: 1000 to 2000 µg/mL
AUC (0-t) [3, 20]: 195.56 ± 84.51 µM·min
MRT (0-T) [3, 20]: 5.3317 ± 0.9937 h
Tmax [3, 20]: 1.333 ± 0.2887 h
t1/2 [3, 20]: 3.744 ± 0.9165 h
Cmax ([3]; SD rats, 20 μmol/kg, intragastric administration, plasma, listed as monoethanedisulfonate): 390 ± 160 nM
AUC (0-t) and Cmax, comparison in words ([3]; rats, oral, same dose, free base and 6 salts): relatively low
hygroscopicity, in words [4]: not easy to absorb moisture
